Results from patent publication US9790178B2, “Pyrrolidinyl urea, thiourea, guanidine and cyanoguanidine compounds as TrkA kinase inhibitors” (Array BioPharma Inc., priority 2012, dated 2017).

What was measured:
Assay in all cases: KinaseProfiler off-target kinase profiling
Format in all cases: biochemical
Conditions in all cases: 10 μM, ATP near Km
Rsk1 = biological target: T1, Rsk1 (Homo sapiens, UniProt Q15418)
T1 construct: purchased Millipore (KinaseProfiler service)
Summary of the method: (§1)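 First, ATP was adjusted to roughly the Km of every kinase in the panel. The compound was then added at 10 μM, each well run twice, and activity was expressed relative to control and averaged.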

PDK1 = biological target: T2, PDK1 (Homo sapiens, UniProt O15530)
T2 construct: purchased Millipore, Inc. (KinaseProfiler service)
Summary of the method: as §1

NEK3 = biological target: T3, NEK3 (Homo sapiens, UniProt P51956)
T3 construct: purchased Millipore, Inc. (KinaseProfiler service)
Summary of the method: as §1

AKT3 = biological target: T4, AKT3 (Homo sapiens, UniProt Q9Y243)
T4 construct: purchased Millipore, Inc. (KinaseProfiler service)
Summary of the method: as §1

GRK5 = biological target: T5, GRK5 (Homo sapiens, UniProt P34947)
T5 construct: purchased Millipore, Inc. (KinaseProfiler service)
T5 sequence (P34947 whole entry): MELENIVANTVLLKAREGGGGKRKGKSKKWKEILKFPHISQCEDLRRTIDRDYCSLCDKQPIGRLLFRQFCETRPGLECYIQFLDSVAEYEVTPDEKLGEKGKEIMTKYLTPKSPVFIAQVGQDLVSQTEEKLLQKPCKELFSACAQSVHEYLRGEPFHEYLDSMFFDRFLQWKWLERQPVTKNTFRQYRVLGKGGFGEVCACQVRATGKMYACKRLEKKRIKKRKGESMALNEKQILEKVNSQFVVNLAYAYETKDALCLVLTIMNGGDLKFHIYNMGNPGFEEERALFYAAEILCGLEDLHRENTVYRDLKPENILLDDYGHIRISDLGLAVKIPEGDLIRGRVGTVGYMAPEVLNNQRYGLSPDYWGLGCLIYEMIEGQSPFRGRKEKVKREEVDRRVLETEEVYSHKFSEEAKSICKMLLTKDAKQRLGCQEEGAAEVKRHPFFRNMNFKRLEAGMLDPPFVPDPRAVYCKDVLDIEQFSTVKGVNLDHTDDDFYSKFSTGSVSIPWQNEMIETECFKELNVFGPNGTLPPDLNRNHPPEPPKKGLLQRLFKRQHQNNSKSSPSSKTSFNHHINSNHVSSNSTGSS
Summary of the method: as §1

CSK = biological target: T6, CSK (Homo sapiens, UniProt P41240)
T6 construct: purchased Millipore, Inc. (KinaseProfiler service)
Summary of the method: as §1

Pim-3 = biological target: T7, Pim-3 (Homo sapiens, UniProt Q86V86)
T7 construct: purchased Millipore, Inc. (KinaseProfiler service)
Summary of the method: as §1

LKB1 = biological target: T8, LKB1 (Homo sapiens, UniProt Q15831)
T8 construct: purchased Millipore, Inc. (KinaseProfiler service)
Summary of the method: as §1

EGFR = biological target: T9, EGFR (Homo sapiens, UniProt P00533)
T9 construct: purchased Millipore, Inc. (KinaseProfiler service)
Summary of the method: as §1

Pyk2 = biological target: T10, Pyk2 (Homo sapiens, UniProt Q14289)
T10 construct: purchased Millipore (KinaseProfiler service)
Summary of the method: as §1

NEK6 = biological target: T11, NEK6 (Homo sapiens, UniProt Q9HC98)
T11 construct: purchased Millipore, Inc. (KinaseProfiler service)
Summary of the method: as §1

WNK2 = biological target: T12, WNK2 (Homo sapiens, UniProt Q9Y3S1)
T12 construct: purchased Millipore, Inc. (KinaseProfiler service)
Summary of the method: as §1

Haspin = biological target: T13, Haspin (Homo sapiens, UniProt Q8TF76)
T13 construct: purchased Millipore, Inc. (KinaseProfiler service)
Summary of the method: as §1

CAMK1 = biological target: T14, CAMK1 (Homo sapiens, UniProt Q14012)
T14 construct: purchased Millipore, Inc. (KinaseProfiler service)
Summary of the method: as §1

MRCKbeta = biological target: T15, MRCKbeta (Homo sapiens, UniProt Q9Y5S2)
T15 construct: purchased Millipore, Inc. (KinaseProfiler service)
Summary of the method: as §1

PKAC-alpha = biological target: T16, PKAC-alpha (Homo sapiens, UniProt P17612)
T16 construct: purchased Millipore, Inc. (KinaseProfiler service)
Summary of the method: as §1

IRAK1 = biological target: T17, IRAK1 (Homo sapiens, UniProt P51617)
T17 construct: purchased Millipore, Inc. (KinaseProfiler service)
T17 sequence (P51617 whole entry): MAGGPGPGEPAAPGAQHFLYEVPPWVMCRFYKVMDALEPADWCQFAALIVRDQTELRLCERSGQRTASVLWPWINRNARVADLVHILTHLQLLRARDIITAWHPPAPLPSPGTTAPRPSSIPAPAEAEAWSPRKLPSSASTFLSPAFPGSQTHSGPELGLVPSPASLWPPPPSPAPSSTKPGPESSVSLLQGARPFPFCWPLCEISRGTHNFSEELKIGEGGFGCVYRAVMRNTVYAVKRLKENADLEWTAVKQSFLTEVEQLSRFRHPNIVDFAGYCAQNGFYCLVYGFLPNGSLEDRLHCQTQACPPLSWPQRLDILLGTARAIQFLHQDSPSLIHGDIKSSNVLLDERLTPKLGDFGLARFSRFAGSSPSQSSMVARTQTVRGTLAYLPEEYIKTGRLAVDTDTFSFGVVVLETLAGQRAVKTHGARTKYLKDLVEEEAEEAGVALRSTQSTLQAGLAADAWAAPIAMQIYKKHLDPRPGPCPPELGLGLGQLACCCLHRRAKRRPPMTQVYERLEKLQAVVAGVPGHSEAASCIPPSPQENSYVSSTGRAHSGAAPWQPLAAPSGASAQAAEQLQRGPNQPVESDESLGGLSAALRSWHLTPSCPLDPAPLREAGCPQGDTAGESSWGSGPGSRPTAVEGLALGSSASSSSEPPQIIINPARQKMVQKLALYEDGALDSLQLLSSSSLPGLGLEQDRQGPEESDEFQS
Summary of the method: as §1

DAPK1 = biological target: T18, DAPK1 (Homo sapiens, UniProt P53355)
T18 construct: purchased Millipore, Inc. (KinaseProfiler service)
T18 sequence (P53355 whole entry): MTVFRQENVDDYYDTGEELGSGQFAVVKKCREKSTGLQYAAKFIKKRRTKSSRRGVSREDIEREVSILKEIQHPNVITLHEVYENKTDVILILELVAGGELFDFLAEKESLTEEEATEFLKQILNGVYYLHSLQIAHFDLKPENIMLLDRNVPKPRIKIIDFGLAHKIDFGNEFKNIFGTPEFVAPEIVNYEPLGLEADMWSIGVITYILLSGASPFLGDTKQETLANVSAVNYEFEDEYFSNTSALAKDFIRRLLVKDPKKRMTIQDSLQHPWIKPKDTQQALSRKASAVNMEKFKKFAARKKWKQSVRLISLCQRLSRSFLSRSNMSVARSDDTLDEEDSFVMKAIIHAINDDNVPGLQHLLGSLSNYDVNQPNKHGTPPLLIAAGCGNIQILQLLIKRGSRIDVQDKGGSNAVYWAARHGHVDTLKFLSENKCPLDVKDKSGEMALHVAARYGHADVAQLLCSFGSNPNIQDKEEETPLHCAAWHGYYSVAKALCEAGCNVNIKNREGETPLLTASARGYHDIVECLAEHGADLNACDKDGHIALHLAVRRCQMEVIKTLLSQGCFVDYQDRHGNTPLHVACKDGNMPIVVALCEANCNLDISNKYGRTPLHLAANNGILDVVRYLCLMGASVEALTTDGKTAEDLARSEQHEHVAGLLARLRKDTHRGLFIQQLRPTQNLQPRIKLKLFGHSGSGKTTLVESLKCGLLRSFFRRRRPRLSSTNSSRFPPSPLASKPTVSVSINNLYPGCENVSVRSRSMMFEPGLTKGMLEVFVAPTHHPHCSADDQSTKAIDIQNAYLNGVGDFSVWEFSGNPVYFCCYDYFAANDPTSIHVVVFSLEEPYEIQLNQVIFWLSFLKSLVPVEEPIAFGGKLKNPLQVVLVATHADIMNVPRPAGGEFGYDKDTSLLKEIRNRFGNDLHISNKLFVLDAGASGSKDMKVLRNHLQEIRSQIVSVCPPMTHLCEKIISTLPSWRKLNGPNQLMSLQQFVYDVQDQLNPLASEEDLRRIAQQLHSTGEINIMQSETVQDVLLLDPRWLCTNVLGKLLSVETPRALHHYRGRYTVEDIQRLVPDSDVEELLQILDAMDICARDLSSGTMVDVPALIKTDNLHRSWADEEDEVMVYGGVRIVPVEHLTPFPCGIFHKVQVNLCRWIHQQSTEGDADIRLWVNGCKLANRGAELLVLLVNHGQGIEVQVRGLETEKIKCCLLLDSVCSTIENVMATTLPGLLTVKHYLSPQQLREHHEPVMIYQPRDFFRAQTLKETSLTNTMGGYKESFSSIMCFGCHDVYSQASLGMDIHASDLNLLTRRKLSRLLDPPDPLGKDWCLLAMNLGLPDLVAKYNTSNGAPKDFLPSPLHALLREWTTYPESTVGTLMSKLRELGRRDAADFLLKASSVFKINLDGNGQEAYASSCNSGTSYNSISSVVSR
Summary of the method: as §1

ZAP-70 = biological target: T19, ZAP-70 (Homo sapiens, UniProt P43403)
T19 construct: purchased Millipore, Inc. (KinaseProfiler service)
Summary of the method: as §1

JNK3 = biological target: T20, JNK3 (Homo sapiens, UniProt P53779)
T20 construct: purchased Millipore, Inc. (KinaseProfiler service)
T20 sequence (P53779 whole entry): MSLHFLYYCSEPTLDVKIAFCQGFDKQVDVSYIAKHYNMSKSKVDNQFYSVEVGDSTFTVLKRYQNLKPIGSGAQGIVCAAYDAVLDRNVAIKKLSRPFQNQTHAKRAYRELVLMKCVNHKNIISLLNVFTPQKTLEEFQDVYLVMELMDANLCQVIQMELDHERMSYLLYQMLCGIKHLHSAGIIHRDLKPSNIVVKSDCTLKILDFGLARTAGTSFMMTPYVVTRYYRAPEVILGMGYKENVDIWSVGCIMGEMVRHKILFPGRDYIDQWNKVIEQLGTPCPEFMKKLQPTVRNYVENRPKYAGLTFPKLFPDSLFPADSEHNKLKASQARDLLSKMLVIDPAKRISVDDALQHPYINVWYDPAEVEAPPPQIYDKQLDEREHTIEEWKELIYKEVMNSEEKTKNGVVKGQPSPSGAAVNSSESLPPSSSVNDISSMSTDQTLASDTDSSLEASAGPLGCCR
Summary of the method: as §1

Bmx = biological target: T21, Bmx (Homo sapiens, UniProt P51813)
T21 construct: purchased Millipore, Inc. (KinaseProfiler service)
Summary of the method: as §1

Ret = biological target: T22, Ret (Homo sapiens, UniProt P07949)
T22 construct: purchased Millipore (KinaseProfiler service)
T22 sequence (P07949 29-1114): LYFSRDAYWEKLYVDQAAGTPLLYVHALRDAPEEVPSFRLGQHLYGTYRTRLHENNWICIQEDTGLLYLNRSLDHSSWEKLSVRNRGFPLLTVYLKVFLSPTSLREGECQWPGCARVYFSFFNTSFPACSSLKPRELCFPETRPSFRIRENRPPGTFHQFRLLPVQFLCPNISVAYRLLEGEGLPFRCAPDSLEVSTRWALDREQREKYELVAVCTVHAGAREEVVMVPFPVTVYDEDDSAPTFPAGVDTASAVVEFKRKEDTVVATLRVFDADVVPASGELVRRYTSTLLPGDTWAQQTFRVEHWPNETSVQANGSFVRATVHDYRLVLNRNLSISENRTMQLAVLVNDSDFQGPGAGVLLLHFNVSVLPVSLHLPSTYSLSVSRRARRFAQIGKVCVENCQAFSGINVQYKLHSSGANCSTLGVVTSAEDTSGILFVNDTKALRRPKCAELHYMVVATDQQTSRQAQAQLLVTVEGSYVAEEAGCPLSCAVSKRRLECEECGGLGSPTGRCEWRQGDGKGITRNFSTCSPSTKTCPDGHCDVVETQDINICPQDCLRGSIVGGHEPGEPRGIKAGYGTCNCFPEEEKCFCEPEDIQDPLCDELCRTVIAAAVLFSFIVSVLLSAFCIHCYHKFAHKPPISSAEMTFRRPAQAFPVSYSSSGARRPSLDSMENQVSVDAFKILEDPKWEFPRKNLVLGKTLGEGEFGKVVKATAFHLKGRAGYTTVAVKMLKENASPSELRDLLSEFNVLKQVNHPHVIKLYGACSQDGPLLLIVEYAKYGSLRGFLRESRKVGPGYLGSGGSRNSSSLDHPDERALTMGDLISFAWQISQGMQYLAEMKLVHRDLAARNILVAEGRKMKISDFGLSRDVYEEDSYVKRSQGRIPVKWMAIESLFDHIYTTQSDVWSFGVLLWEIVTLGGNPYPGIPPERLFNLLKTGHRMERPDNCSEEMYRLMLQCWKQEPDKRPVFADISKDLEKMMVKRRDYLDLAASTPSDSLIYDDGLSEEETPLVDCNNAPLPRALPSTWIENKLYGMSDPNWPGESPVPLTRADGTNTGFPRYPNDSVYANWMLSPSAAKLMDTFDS
Summary of the method: as §1

MKK4_m = biological target: T23, MKK4_m (Mus musculus, UniProt P47809)
T23 construct: purchased Millipore, Inc. (KinaseProfiler service)
Summary of the method: as §1

mTOR = biological target: T24, mTOR (Homo sapiens, UniProt P42345)
T24 construct: purchased Millipore, Inc. (KinaseProfiler service)
Summary of the method: as §1

DMPK = biological target: T25, DMPK (Homo sapiens, UniProt Q09013)
T25 construct: purchased Millipore, Inc. (KinaseProfiler service)
Summary of the method: as §1

MSK2 = biological target: T26, MSK2 (Homo sapiens, UniProt O75676)
T26 construct: purchased Millipore, Inc. (KinaseProfiler service)
Summary of the method: as §1

Fes = biological target: T27, Fes (Homo sapiens, UniProt P07332)
T27 construct: purchased Millipore, Inc. (KinaseProfiler service)
Summary of the method: as §1

PKCepsilon = biological target: T28, PKCepsilon (Homo sapiens, UniProt Q02156)
T28 construct: purchased Millipore, Inc. (KinaseProfiler service)
Summary of the method: as §1

MAPKAP-K2 = biological target: T29, MAPKAP-K2 (Homo sapiens, UniProt P49137)
T29 construct: purchased Millipore, Inc. (KinaseProfiler service)
Summary of the method: as §1

ROCK-II = biological target: T30, ROCK-II (Homo sapiens, UniProt O75116)
T30 construct: purchased Millipore (KinaseProfiler service)
Summary of the method: as §1

TSSK2 = biological target: T31, TSSK2 (Homo sapiens, UniProt Q96PF2)
T31 construct: purchased Millipore, Inc. (KinaseProfiler service)
T31 sequence (Q96PF2 whole entry): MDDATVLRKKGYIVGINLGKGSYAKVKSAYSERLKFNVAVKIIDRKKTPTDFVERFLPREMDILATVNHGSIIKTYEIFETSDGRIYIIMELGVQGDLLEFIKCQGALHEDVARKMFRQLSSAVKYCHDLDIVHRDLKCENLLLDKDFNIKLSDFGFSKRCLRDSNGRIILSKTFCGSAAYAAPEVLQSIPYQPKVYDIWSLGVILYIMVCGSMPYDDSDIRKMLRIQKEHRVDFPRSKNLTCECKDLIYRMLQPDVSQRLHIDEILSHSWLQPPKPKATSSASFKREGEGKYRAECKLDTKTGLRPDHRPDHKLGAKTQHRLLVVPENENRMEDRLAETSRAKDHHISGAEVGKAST
Summary of the method: as §1

DYRK2 = biological target: T32, DYRK2 (Homo sapiens, UniProt Q92630)
T32 construct: purchased Millipore, Inc. (KinaseProfiler service)
Summary of the method: as §1

PAK6 = biological target: T33, PAK6 (Homo sapiens, UniProt Q9NQU5)
T33 construct: purchased Millipore, Inc. (KinaseProfiler service)
Summary of the method: as §1

ULK3 = biological target: T34, ULK3 (Homo sapiens, UniProt Q6PHR2)
T34 construct: purchased Millipore, Inc. (KinaseProfiler service)
Summary of the method: as §1

CAMK4 = biological target: T35, CAMK4 (Homo sapiens, UniProt Q16566)
T35 construct: purchased Millipore, Inc. (KinaseProfiler service)
Summary of the method: as §1

eEF-2K = biological target: T36, eEF-2K (Homo sapiens, UniProt O00418)
T36 construct: purchased Millipore, Inc. (KinaseProfiler service)
Summary of the method: as §1

Flt1 = biological target: T37, Flt1 (Homo sapiens, UniProt P17948)
T37 construct: purchased Millipore, Inc. (KinaseProfiler service)
Summary of the method: as §1

Flt3 = biological target: T38, Flt3 (Homo sapiens, UniProt P36888)
T38 construct: purchased Millipore, Inc. (KinaseProfiler service)
Summary of the method: as §1

SGK1 = biological target: T39, SGK1 (Homo sapiens, UniProt O00141, S422D)
T39 construct: purchased Millipore, Inc. (KinaseProfiler service)
Summary of the method: as §1

EphB2 = biological target: T40, EphB2 (Homo sapiens, UniProt P29323)
T40 construct: purchased Millipore, Inc. (KinaseProfiler service)
Summary of the method: as §1

Abl = biological target: T41, Abl (Homo sapiens, UniProt P00519)
T41 construct: purchased Millipore, Inc. (KinaseProfiler service)
Summary of the method: as §1

Compound: COCCN1C[C@@H](NC(=O)Nc2c(-c3ccccc3)nc3c(C)nccn23)[C@H](c2ccc(F)c(F)c2)C1 [Example 20, 1-((3S,4R)-4-(3,4-difluorophenyl)-1-(2-methoxyethyl)pyrrolidin-3-yl)-3-(8-methyl-2-phenylimidazo[1,2-a]pyrazin-3-yl)urea]
- Avg. POC (Rsk1): 115 POC
- Avg. POC (PDK1): 119.5 POC
- Avg. POC (NEK3): 103 POC
- Avg. POC (AKT3): 104 POC
- Avg. POC (GRK5): 108 POC
- Avg. POC (CSK): 104.5 POC
- Avg. POC (Pim-3): 98 POC
- Avg. POC (LKB1): 105 POC
- Avg. POC (EGFR): 107.5 POC
- Avg. POC (Pyk2): 98.5 POC
- Avg. POC (NEK6): 92.5 POC
- Avg. POC (WNK2): 120 POC
- Avg. POC (Haspin): 93.5 POC
- Avg. POC (CAMK1): 105.5 POC
- Avg. POC (MRCKbeta): 118.5 POC
- Avg. POC (PKAC-alpha): 114 POC
- Avg. POC (IRAK1): 109.5 POC
- Avg. POC (DAPK1): 103 POC
- Avg. POC (ZAP-70): 102.5 POC
- Avg. POC (JNK3): 124.5 POC
- Avg. POC (Bmx): 103.5 POC
- Avg. POC (Ret): 97.5 POC
- Avg. POC (MKK4_m): 113 POC
- Avg. POC (mTOR): 108 POC
- Avg. POC (DMPK): 105.5 POC
- Avg. POC (MSK2): 126 POC
- Avg. POC (Fes): 113.5 POC
- Avg. POC (PKCepsilon): 107.5 POC
- Avg. POC (MAPKAP-K2): 106.5 POC
- Avg. POC (ROCK-II): 122 POC
- Avg. POC (TSSK2): 106 POC
- Avg. POC (DYRK2): 85.5 POC
- Avg. POC (PAK6): 102 POC
- Avg. POC (ULK3): 108 POC
- Avg. POC (CAMK4): 105 POC
- Avg. POC (eEF-2K): 108 POC
- Avg. POC (Flt1): 100 POC
- Avg. POC (Flt3): 110 POC
- Avg. POC (SGK1): 119 POC
- Avg. POC (EphB2): 104 POC
- Avg. POC (Abl): 114 POC
